US12357561B2, “Compositions and uses of alpha-adrenergic agents” (LEVATION PHARMA LTD., priority 2016, dated 2025)

Tested on: New Zealand rabbits
Assay: Ocular observations after injection of oxymetazoline solutions into the post-septal fat pad of rabbits
Assay type: in vivo, rabbit
Settings: for Palpebral Reflex / Threat Test: 100 μl post-septal fat pad injection; for Palpebral Reflex / Threat Test / eyelid closure (notes): Right Eye
Procedure: Rabbits without ocular pathology received oxymetazoline solutions by ocular injection. The evolution was tested postoperative, 1, 2, 3, 7, 10, and 14 day after oxymetazoline solutions administration. Eyelids were analyzed by histology at the end of the experiment. Endpoints included inflammation, fibrosis, pre- and post-septal fat, status of levator muscle and Müller's muscle, presence of vascular injury or necrosis or ischemic injury to eyelid tissues.
• Animals: female New Zealand rabbits (2.5-3 kg) • Sedation: atropine sulfate and midazolam IV (ear vein) • Anesthesia: induction with Propofol 1% (10 mg/kg) by ear vein • Maintenance with isoflurane (inhalant anesthesia) • Oxymetazoline solutions • Slit lamp Method Baseline Measures (1st Phase) • I. Animals (n=2); 2.5-3 kg New Zealand rabbit • II. Without sedation and anesthesia • III. Photographic record with a ruler (to serve as a standard measure of distance). Three sets of photos per measurements taken in dim lighting to keep rabbits from squinting • IV. 50 μl of 10% phenylephrine was administered via topical into the right eye (RE) • V. Photographic record with a ruler. Three sets of photos per measurements. After 20-30 minutes post-dose. • VI. Animals returned to animal housing. Test Article (Oxymetazoline Solutions) (2nd Phase) • I. Animals (n=3/each group); 2.5-3 kg New Zealand rabbit • II. Photographic record with a ruler (to serve as a standard measure of distance). Three sets of photos per measurements taken in dim lighting to keep rabbits from squinting. • III. Sedation with atropine sulfate and midazolam • IV. Induction with Propofol • V. Maintenance with isoflurane • VI. Ocular injection of oxymetazoline solutions or PBS (phosphate-buffered saline) • a. Group A: oxymetazoline 1 mg/ml in PBS (RE) and PBS (LE) • b. Group B: oxymetazoline 3 mg/ml in PBS (RE) and PBS (LE) • c. Group C: oxymetazoline 10 mg/ml in PBS (RE) and PBS (LE) All animals were administered 100 μI (0.1 ml) of the oxymetazoline solution (RE) or PBS vehicle control (LE) via an injection into the post-septal fat pad, adjacent to Müller's muscle of both eyelids on Day 0. For this injection, a 30G needle was used; test article was administered at least 4 mm away from the site of the needle entry to prevent reflux of fluid through the hole. • VII. Follow-up. • VIII. Euthanized animals 14 days after the injection of oxymetazoline solutions to process the eyelids tissues. • a. Harvest both eyelids from each animal and store in formalin • b. Histology (H/E staining) Follow-Up Follow-up included: • Eyelid retraction/ptosis measurements & digital photos with eyes directly facing camera and a ruler in the frame of the photograph to standardize distances. Three sets of photos per measurement taken in dim lighting to keep rabbits from squinting. • Slit-lamp biomicroscopy • Daily general health observations • Body weights prior to dosing and prior to sacrifice Study Variables • I. Palpebral fissure distance • II. Margin reflex distance 1 Results • Group A (1 mg/ml) • Notes: • pre-injection.
Group B (3 mg/ml) Notes: • pre-injection.

[1] = Group A 1 mg/ml in PBS, Day 2, animals #1/#2/#3
[2] = Group A 1 mg/ml in PBS, Day 3 morning, animals #1/#2/#3
[3] = Group A 1 mg/ml, Day 2 (3 h post-injection)
[4] = Group B 3 mg/ml in PBS, Day 2, animals #1/#2
[5] = Group B 3 mg/ml in PBS, Day 3 afternoon, animals #1/#2
[6] = Group B 3 mg/ml in PBS, Day 3 morning, animals #1/#2
[7] = Group B 3 mg/ml in PBS, Day 4 morning, animals #1/#2
[8] = Group B 3 mg/ml, Day 2 (3 h post-injection)

Cc1cc(C(C)(C)C)c(O)c(C)c1CC1=NCCN1 [oxymetazoline]
Palpebral Reflex [1]: Abolished/Abolished/
Threat Test [1]: Abolished/Abolished/
Threat Test (Group A 1 mg/ml in PBS, Day 3 afternoon, animals #1/#2/#3): Delayed/Delayed/Delayed
Palpebral Reflex [2]: Delayed/Delayed/Delayed
Threat Test [2]: Abolished/Abolished/
Threat Test (Group A 1 mg/ml in PBS, Day 4 afternoon, animals #1/#2/#3): Delayed/Delayed/Delayed
Threat Test (Group A 1 mg/ml in PBS, Day 4 morning, animals #1/#2/#3): Delayed/Delayed/Delayed
ocular discomfort (notes) [3]: Animal show ocular discomfort
eyelid closure (notes) [3]: pressure applied to close eyelid
eyelid closure (notes) (Group A 1 mg/ml, Day 3 morning): pressure applied to close eyelid
Palpebral Reflex [4]: Abolished/Abolished
Threat Test [4]: Abolished/Abolished
Palpebral Reflex [5]: Delayed/Delayed
Threat Test [5]: Abolished/Abolished
Palpebral Reflex [6]: Delayed/Delayed
Threat Test [6]: Abolished/Abolished
Threat Test (Group B 3 mg/ml in PBS, Day 4 afternoon, animals #1/#2): Delayed/Delayed
Palpebral Reflex [7]: Delayed/Delayed
Threat Test [7]: Delayed/Delayed
Threat Test (Group B 3 mg/ml in PBS, Day 5, animals #1/#2): Delayed/
ocular discomfort (notes) [8]: Animal show ocular discomfort
eyelid closure (notes) [8]: pressure applied to close eyelid
eyelid closure (notes) (Group B 3 mg/ml, Day 3 afternoon): pressure applied to close eyelid
eyelid closure (notes) (Group B 3 mg/ml, Day 3 morning): pressure applied to close eyelid
eyelid closure (notes) (Group B 3 mg/ml, Day 4 morning): pressure applied to close eyelid
